Test results as given in US10508113B2, “Inhibitors of tyrosine kinase 2 mediated signaling” (AbbVie Inc., priority 2018, dated 2019).
pEC50: −log10 of the molar value.

Target: T1, Tyk2/Jak2 (Homo sapiens, UniProt P29597)
T1 construct: Cell Type: Frozen primary phytohemagglutinin (PHA) T-Blasts; endogenous in cells; host or cells: primary PHA T-blasts
Test: Tyk2 (Tyk2/Jak2 PSTAT4 T-Blast) alpha screen assay: inhibition of IL-12 induced phosphorylation of STAT4 in T-blast cells
Assay type: cell-based
Settings: IL-12 induced pSTAT4, T-blast cells
Experimental: 1. TYK2 (TYK2/JAK2 PSTAT4 T-BLAST) ALPHA SCREEN ASSAY
IL-12 is known to transduce its signal through IL-12 receptor via Jak2 and/or Tyk2. For that reason, the activity against Tyk2/Jak2 was measured by determining the inhibition of IL-12 induced phosphorylation of STAT4 in T-blast cells. […] See, e.g., Sohn et al., J. Immunology (2013) 2205-2216.
Cell Type: Frozen primary phytohemagglutinin (PHA) T-Blasts; Culture Medium: Roswell Park Memorial Institute (RPMI) 1640 Medium, 10% heat-inactivated fetal bovine serum (FBS), 1% penicillin/streptomycin (Pen-Strep), 10 mM hydroxyethyl piperazineethanesulfonic acid (HEPES), 10 ng/mL recombinant human interleukin-12 (rhIL-12); Assay Medium: Hank's Balanced Salt Solution (HBSS), no phenol red.
i. Automated 11-point 1:3 dilution curve: 2.5 mM top concentration dispensed in column 1 of a Corning 96-well polypropylene plate. Dimethyl sulfoxide (DMSO) was added to column 12 for high and low controls. Compounds were serially diluted 1:3 by adding 20 uL stock to 40 μL DMSO across the plate via Hamilton Microlab Star instrument.
ii. Media dilution of compounds: Serially diluted compounds were diluted 1:50 in assay medium by adding 4 μL compound to 196 μL assay medium in a Corning 96-well polypropylene plate (now 2% DMSO).
iii. […]
Primary T-Blasts from overnight culture were centrifuged, washed once in assay medium, and pelleted. T-Blasts were counted and resuspended at 12,500,000 cells/mL. […]
Phosphorylated Signal Transducer and Activator of Transcription 4 (pSTAT4) was quantified using the PerkinElmer SureFire Ultra pSTAT4 (Tyrosine 693) Assay. […]
Make master mix of Protein A donor beads using the following volumes per well: 5.88 μL Dilution Buffer and 0.12 μL […]. […] Read plate on Perkin Elmer Envision. […]
Certain compounds listed in Table C were tested for Tyk2 activity following the aforementioned Tyk2 (Tyk2/Jak2 PSTAT4 T-Blast) alpha screen assay and Jak2 (PTATS UT7) alpha screen assay. […] Selectivity for Tyk2 over Jak1, and Tyk2 over Jak2, are calculated from the tabulated activity data.

T1 sequence (P29597 whole entry, other chains not shown): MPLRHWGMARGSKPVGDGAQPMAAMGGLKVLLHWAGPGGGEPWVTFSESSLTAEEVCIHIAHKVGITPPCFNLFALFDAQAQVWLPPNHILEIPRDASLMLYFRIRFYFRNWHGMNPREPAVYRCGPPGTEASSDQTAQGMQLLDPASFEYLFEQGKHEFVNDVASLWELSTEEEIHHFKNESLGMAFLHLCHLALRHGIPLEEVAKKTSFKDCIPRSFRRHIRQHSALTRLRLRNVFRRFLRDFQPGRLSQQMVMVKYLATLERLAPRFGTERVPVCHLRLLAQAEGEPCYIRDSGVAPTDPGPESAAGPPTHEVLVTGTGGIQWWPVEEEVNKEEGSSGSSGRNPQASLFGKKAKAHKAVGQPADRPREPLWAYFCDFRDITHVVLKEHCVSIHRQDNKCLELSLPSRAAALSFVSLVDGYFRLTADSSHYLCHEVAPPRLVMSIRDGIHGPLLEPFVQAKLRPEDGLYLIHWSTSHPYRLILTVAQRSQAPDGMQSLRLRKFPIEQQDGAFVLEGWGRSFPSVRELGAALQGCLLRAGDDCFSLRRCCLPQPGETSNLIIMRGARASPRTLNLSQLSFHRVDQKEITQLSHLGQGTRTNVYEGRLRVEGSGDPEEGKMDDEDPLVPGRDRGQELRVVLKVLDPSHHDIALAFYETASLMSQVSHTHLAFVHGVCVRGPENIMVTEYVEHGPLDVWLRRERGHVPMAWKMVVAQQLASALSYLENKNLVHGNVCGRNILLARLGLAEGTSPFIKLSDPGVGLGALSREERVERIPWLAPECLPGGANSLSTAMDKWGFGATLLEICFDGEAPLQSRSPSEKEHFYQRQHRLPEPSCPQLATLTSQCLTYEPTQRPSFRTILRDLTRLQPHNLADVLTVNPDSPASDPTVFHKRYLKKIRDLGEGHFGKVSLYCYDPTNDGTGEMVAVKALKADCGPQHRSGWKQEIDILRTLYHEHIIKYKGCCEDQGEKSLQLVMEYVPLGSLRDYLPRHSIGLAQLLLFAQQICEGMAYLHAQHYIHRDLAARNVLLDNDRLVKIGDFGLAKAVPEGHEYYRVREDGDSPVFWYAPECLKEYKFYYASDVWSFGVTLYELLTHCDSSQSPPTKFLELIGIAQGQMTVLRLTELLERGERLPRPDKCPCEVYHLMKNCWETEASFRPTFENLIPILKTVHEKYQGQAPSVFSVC

| pEC50 | SMILES |
| --- | --- |
| 6.83 | COCc1cc(-c2cn(C)c3cnc(NC(C)=O)cc23)nc([C@]2([C@H](C)O)CCOC2)c1 [Example 22.3, N-(3-(6-((R)-3-((S)-1-hydroxyethyl)tetrahydrofuran-3-yl)-4-(methoxymethyl)pyridin-2-yl)-1-methyl-1H-pyrrolo[2,3-c]pyridin-5-yl)acetamide] |
| 6.95 | COCc1cc(-c2cn(C)c3cnc(NC(C)=O)cc23)nc([C@]2([C@@H](C)O)CCOC2)c1 [Example 22.4, N-(3-(6-((R)-3-((R)-1-hydroxyethyl)tetrahydrofuran-3-yl)-4-(methoxymethyl)pyridin-2-yl)-1-methyl-1H-pyrrolo[2,3-c]pyridin-5-yl)acetamide] |
